# Patent publication US12514832B2, “Methods for using low-dose colchicine after myocardial infarction” (INSTITUT DE CARDIOLOGIE DE MONTREAL, priority 2019, dated 2026)
# System: white blood cell count
# Assay: COLCOT white blood cell counts (total, lymphocytes, neutrophils)
# Type: in vivo, human
# Details: for Total white blood cell count, geometric mean / Total white blood cell count, Adjusted GM percent change: N=992
# From the text: Additional prespecified exploratory end points included the change from baseline to 6 months in the high-sensitivity C-reactive protein level and the change from baseline to 12 months in the white-cell count. The C-reactive protein biomarker substudy was implemented after a protocol amendment and was optional for sites and for patients; 34 sites chose to participate in this substudy.
# The analysis of the primary end point was repeated in the per-protocol population (i.e., patients without major protocol deviations). Secondary and exploratory end points expressed as time to event were analyzed similarly. The changes from baseline to follow-up were analyzed with the use of an analysis of covariance model with adjustment for baseline value, and estimates of treatment effect are presented with 95% confidence intervals.
# In Table 8, the placebo-adjusted geometric mean percent change was obtained by exponentiating the adjusted mean difference between groups from the analysis of covariance model (based on log-transformed data), then subtracting 1 and multiplying by 100.
# In addition, the C-reactive protein biomarker sub-study was implemented following a protocol amendment and was optional for sites and for patients; 34 sites accepted to participate in this substudy. There were 213 and 208 patients who provided blood samples at baseline and 6 months, respectively. Paired baseline and 6-month hs-CRP values were available in 207 patients. Clinically available white blood cell counts were obtained from 2598 patients at baseline and 1998 patients at 12 months, and paired baseline and 12-month values were available in 1972 patients. Statistical analysis was conducted on the patients who provided both baseline and follow-up data and as these were exploratory analyses, no missing data was imputed.
# Information about white-cell counts at baseline and at the 12-month follow-up were also available for a relatively small subgroup of 1972 patients. The adjusted geometric mean percent changes from baseline to 1 year in the total white-cell count were −18.8% in the colchicine group and −19.0% in the placebo group, with no significant difference between groups (0.3% percentage points; 95% CI, −2.2 to 2.7).
# [1] = baseline to 12 months, colchicine vs placebo
compound,measurement,setting,value
"COc1cc2c(c(OC)c1OC)-c1ccc(OC)c(=O)cc1[C@@H](NC(C)=O)CC2 [Colchicine, colchicine]","Circulating lymphocytes, geometric mean",at 12 months,1.83 10^3/μL
same,"Circulating neutrophils, geometric mean",at 12 months,3.95 10^3/μL
same,"Total white blood cell count, geometric mean",at 12 months,6.95 10^3/μL
same,"Circulating lymphocytes, geometric mean",at Randomization (baseline),1.79 10^3/μL
same,"Circulating neutrophils, geometric mean",at Randomization (baseline),5.45 10^3/μL
same,"Total white blood cell count, geometric mean",at Randomization (baseline),8.54 10^3/μL
same,"Circulating lymphocytes, Adjusted GM percent change",baseline to 12 months,1.80%
same,"Circulating neutrophils, Adjusted GM percent change",baseline to 12 months,−27.63%
same,"Total white blood cell count, Adjusted GM percent change",baseline to 12 months,−18.81%
same,"Total white blood cell count, Adjusted GM percent change","baseline to 12 months, listed as colchicine",−18.8%
same,"Circulating lymphocytes, Placebo-adjusted GM percent change",[1],1.10%
same,"Circulating neutrophils, Placebo-adjusted GM percent change",[1],0.45%
same,"Total white blood cell count, Placebo-adjusted GM percent change",[1],0.26%
same,"Total white blood cell count, Placebo-adjusted GM percent change","baseline to 12 months, colchicine vs placebo, listed as colchicine",0.3%
